Source: paper PMC9137037 (Frontiers in Oncology, 2022)
Where no end group is shown, it is not given here.

Legend:
[1] = system: cynomolgus monkeys; test: GLP repeat-dose toxicology, second monkey study No.00213519; type: in vivo, Macaca fascicularis
Protocol: The non-human primate studies were carried out by the Charles River Laboratories (Ashland, OH USA). All the cynomolgus monkeys (Macaca fascicularis of Chinese origin) were obtained from Charles River Laboratories (Houston, TX, USA). In brief, the animals were approximately 2–4 years old and at the body weight between 2.2 and 3.1 kg at the initial dosing. The animals were kept at the temperature between 19°C and 24°C, humidity 30%–70%, and with 12 h light and 12 h dark light cycle. The Good manufacturing practice (GMP)-manufactured vaccine was used in the non-human primate study. […] Similar to mouse and dog dosing preparation, after the emulsion was prepared, a drop test was performed on each time of dosing to confirm that the emulsion had been prepared properly. […] The dose volume was split approximately equally across two different sites; 0.5 ml of the dose was intramuscularly (IM) injected into the right posterior lateral thigh, the left dosing was injected into the left site. All the animals’ body weights were monitored weekly after receiving. After each immunization, the animal body temperature was tested 6 and 24 h post each immunization. […] The animal bleed were collected before each time of immunization to monitor the antibody titers. There were two sets of non-human primate studies conducted. The first set of monkey study No.00213515 had 24 monkeys, 12 males, and 12 females divided into 4 groups: vehicle control, low dose 0.5 mg, medium dose 2 mg, and high dose 5 mg. There were 16 monkeys (8 males and 8 females) in the second set of monkey study No. 00213519. The monkeys in the four groups were vaccinated as follows: vehicle control, low dose 25 μg, medium dose 100 μg, and high dose 250 μg.
In the second set of non-human primate study (#00213519), 16 non-human primates, cynomolgus monkeys, were used. The monkeys were immunized […] at 2-week intervals represented by 1Y, 2Y, 3Y, and 4Y at days 1, 15, 29, and 43, respectively.The bleed were collected at day 1 (pre), day 29 (2Y+2/3Y), day 43 (3Y+2 and 4Y), and day 57 (4Y+2) ( Figure 4C ). There were four groups with 4 monkeys (2 males and 2 females) in each group. Group 1 was the control group, which was treated with only ISA 720 and ddwater. […] The Immunogenicity of peptide-based vaccines in non-human primates was detected by using ELISA to detect antibody titers in the sera of both non-human primate studies ( Figures 4E, F ). The relative high antibody responses have been established in each individual cynomolgus monkey.
A slight increase in anti-APi2568 antibody titers was observed between day 29 and day 43, with no apparent reduction in titers by […].

[2] = target: T1, human recombinant protein PD-1 (Homo sapiens, UniProt Q15116); test: ELISA activity of dog sera with human recombinant protein PD-1; type: binding; conditions: Figure 3F
T1 construct: His tag; purchased ACROBiosystems PD1-H5221
Protocol: (§1) For the detection of PD-1 human recombinant protein activity, the human recombinant protein PD-1 (PD1-H5221, HIS tag; ACROBiosystems, Newark, DE, USA) 100 μl at the concentration of […] were coated on the 96 wells plate as an antigen. The following procedures were performed as the description of ELISA.
In order to investigate the diversity of the antibody produced by immunized dogs, isotypes IgM, IgA, IgG1, and IgG2 in dogs were detected after being immunized with the peptide vaccine ( Figure 3E ). In MVF-PD-1(92-110) vaccine-treated dogs, the majority of isotype is IgG2, which ranged from 74% to 81%, the IgG1 range from 12% to 18%, IgM from 5% to 9%, and IgA less than 2%. Peptide sera from dogs #1, 2, and 3 were used to detect the antibody activity against human recombinant protein PD-1.

[3] = system: nivolumab; conditions: surface plasmon resonance; cited from earlier work
Protocol: (§2) The PD-1 amino acids 92-110 (^92[…]^101[…]^110) chosen for evaluation were selected based on the crystal structure of PD-1:PD-L1. This PD-1 sequence was synthesized as a chimeric construct with a promiscuous T-cell helper epitope derived from the measles virus fusion protein (MVF, amino acids 288-302). The specificity of the selected PD-1 peptide was determined by surface plasmon resonance spectroscopy.

[4] = system: rhPD-L1; conditions: surface plasmon resonance; cited from earlier work
Protocol: as §2

[5] = target: T2, recombinant human PD-1 (rhPD-1) (Homo sapiens, UniProt Q15116); test: ELISA of monkey serum with rhPD-1 as capture agent; type: binding; conditions: monkey sera
T2 construct: His tag; purchased ACROBiosystems PD1-H5221
Protocol: as §1
In a separate experiment, these monkey serum samples were tested using recombinant human PD-1 (rhPD-1) as the capture agent. […] See Table 2 for summary of mouse, dog, and non-human primate experiments.

[6] = system: beagle dogs; test: Antibody isotyping of sera of immunized beagle dogs; type: in vivo, dog; conditions: dogs #1-#3
[7] = 0, 25, 100, 250 µg/dose, days 1, 15, 29, 43, 14-day recovery

T2 sequence (Q15116 25-288): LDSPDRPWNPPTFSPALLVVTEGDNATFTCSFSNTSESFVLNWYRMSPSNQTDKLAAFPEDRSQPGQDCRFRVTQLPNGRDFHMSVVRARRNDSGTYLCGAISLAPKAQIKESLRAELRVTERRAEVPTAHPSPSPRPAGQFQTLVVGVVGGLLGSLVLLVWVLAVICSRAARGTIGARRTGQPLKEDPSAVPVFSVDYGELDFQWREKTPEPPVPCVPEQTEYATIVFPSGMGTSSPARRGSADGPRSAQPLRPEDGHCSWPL
T1 sequence (Q15116 25-288): as above

Sequence: KLLSLIKGVIVHRLEGVEGPSLGAISLAPKAQIKESLRAEL [MVF-PD-1(92-110)]
- effects on body weight, food consumption, body temperature, clinical pathology parameters, or organ weight [1, 7]: No APi2568-related adverse effects
- survival [1, 7]: All monkeys survived to the scheduled necropsy
- NOAEL ([1]; 25, 100, 250 µg/dose IM as PD1-Vaxx, male and female cynomolgus monkeys): 100 µg/dose
- safety (summary) ([1]; monkey 2nd set): safe
- microscopic finding in the biceps femoris IM injection site ([1]; single 250 µg/dose group female monkey, 4 doses at 2-week intervals): adverse necrosis
- activity against recombinant PD-1 protein (summary) [2]: high activity against recombinant PD-1 protein
- recognize and bind nivolumab [3]: able to recognize and bind
- recognize and bind rhPD-L1 [4]: able to recognize and bind
- recognition of rhPD-1 by anti-APi2568 antibody in monkey serum (summary) ([5]; days 29, 43, 57): high binding ability against rh-PD-1
- recognition of rhPD-1 by anti-APi2568 antibody in monkey serum (summary) ([5]; days 29, 43, 57, listed as APi2568): some of the anti-APi2568 antibody formed in monkeys recognized rhPD-1
- IgA isotype percentage [6]: less than 2%
